In patent US7867732B2, “Isolated polypeptide binding to a sugar chain, polynucleotide encoding the polypeptide and use of the polypeptide and polynucleotide” (National University of Corporation Hiroshima University, priority 2005, dated 2011):

B1: Fetuin: fetuin (type III, calf serum) (protein)
chain: IPLDPVAGYKEPACDDPDTEQAALAAVDYINKHLPRGYKHTLNQIDSVKVWPRRPTGEVYDIEIDTLETTCHVLDPTPLANCSVRQQTQHAVEGDCDIHVLKQDGQFSVLFTKCDSSPDSAEDVRKLCPDCPLLAPLNDSRVVHAVEVALATFNAESNGSYLQLVEISRAQFVPLPVSVSVEFAVAATDCIAKEVVDPTKCNLLAEKQYGFCKGSVIQKALGGEDVRVTCTLFQTQPVIPQPQPDGAEAEAPSAVPDAAGPTPSAAGPPVASVVVGPSVVAVPLPLHRAHYDLRHTFSGVASVESSSGEAFHVGKTPIVGQPSIPGGPVRLCPGRIRYFKI
B2: Asialofetuin: asialo form of fetuin (protein)
chain: B1 chain

System: BML-17
Experiment: Hemagglutination-inhibition test with BML-17 and trypsin-treated rabbit erythrocytes
Type: cell-based, Bryopsis maxima
Details: for Inhibition of agglutinating activity of BML-17 (in words): TRBC; for Minimum inhibitory concentration: inhibition of BML-17 (agglutination titer 4) agglutination of TRBC
Experimental: Hemagglutinating activity was measured using a micro titer method. Twenty-five μl of serially two-fold dilutions of each purified fraction solution adjusted with saline was placed on a micro titer plate. Each diluted solution was supplemented with 25 μl of a 2% suspension of trypsin-treated rabbit erythrocytes and was gently stirred. The mixture was allowed to stand at room temperature for 1.5 hours and agglutination was observed. Agglutination was evaluated with naked eye. Agglutination of 50% or greater percentage of red blood cells was evaluated as positive. Agglutinating activity was given by agglutination titer, i.e., the protein concentration of maximum diluent showing agglutinating activity.
In this Example, trypsin-treated rabbit red blood cells (TRBC) were used as red blood cells. TRBC was prepared as follows. First, 2 ml of blood was collected from the ear of a rabbit kept in laboratory. The blood sample was washed 3 times with about 50 ml of saline, and was supplemented with 50 ml of saline to obtain a 2% rabbit blood cell suspension. The solution was supplemented with 1/10 volume of 0.5% trypsin in saline, and was allowed to stand at 37° C. for 1.5 hours. The trypsin-treated red blood cells were then washed 3 times with saline, and were supplemented with 45 ml of saline to obtain a 2% suspension of trypsin-treated rabbit erythrocytes (or blood cells) (TRBC).
Hemagglutination-inhibition test was performed according to the following procedure. First, each 25 μl of serially two-fold dilutions of sugar solution in saline was placed on a micro titer plate. The concentration of the original solutions of sugars examined was 100 mM for monosaccharides and oligosaccharides, and 2 mg/ml for glycoproteins. Each solution was mixed with 25 μl of BML-17 solution that had been adjusted to an agglutination titer of 4, and allowed to stand for 1.5 hours at room temperature after gentle stirring. Then, 25 μl of TRBC was added, and the mixture was allowed to stand for 2 hours at room temperature to observe hemagglutination inhibitory capability. The presence or absence of hemagglutination inhibitory capability was determined by naked eye. The test was positive when no hemagglutination occurred in about 100% of the red blood cells.
The hemagglutination inhibition test used D-glucose, D-galactose, D-mannose, N-acetyl-D-glucosamine, N-acetyl-D-galactosamine, D-xylose, L-fucose, fructose, lactose, and raffinose as monosaccharides and oligosaccharides. As glycoproteins, mucin (bovine submaxillary gland) and asialomucin, fetuin (type III, calf serum) and asialofetuin, transferrin (human) and asialotransferrin, α1-acid glycoprotein (human) and alialo-α1-acid glycoprotein, and yeast mannan were used.

[1] = monosaccharides and oligosaccharides

Molecule | Inhibition of agglutinating activity of BML-17 (in words) | Minimum inhibitory concentration (glycoproteins) | Minimum inhibitory concentration [1]
Mucin | inhibition occurred | 250 µg/mL | –
Asialotransferrin: asialo form of transferrin (human) | inhibition occurred | 1000 µg/mL | –
αl-Acid glycoprotein: α1-acid glycoprotein (human) | – | — (No inhibition at 100 mM of mono- or oligosaccharides, or at 2 mg/ml of glycoproteins) | –
CC(=O)N[C@H]1C(O)O[C@H](CO)[C@@H](O)[C@@H]1O (stereo partly drawn) [N-Acetyl-D-glucosamine] | – | – | — (No inhibition at 100 mM of mono- or oligosaccharides)
CC(=O)N[C@H]1C(O)O[C@H](CO)[C@H](O)[C@@H]1O (stereo partly drawn) [N-Acetyl-D-galactosamine] | – | – | — (No inhibition at 100 mM of mono- or oligosaccharides)
Transferrin: transferrin (human), glycoprotein | inhibition occurred | 2000 µg/mL | –
OC[C@H]1O[C@@H](O[C@H]2[C@H](O)[C@@H](O)C(O)O[C@@H]2CO)[C@H](O)[C@@H](O)[C@H]1O (some centres unmarked) [Lactose] | – | – | — (No inhibition at 100 mM of mono- or oligosaccharides)
C[C@H](O)[C@@H](O)[C@@H](O)[C@H](O)C=O [L-Fucose] | – | – | — (No inhibition at 100 mM of mono- or oligosaccharides)
O=C[C@H](O)[C@@H](O)[C@@H](O)[C@H](O)CO [D-Galactose] | – | – | — (No inhibition at 100 mM of mono- or oligosaccharides)
O=C[C@H](O)[C@@H](O)[C@H](O)[C@H](O)CO [D-Glucose] | – | – | — (No inhibition at 100 mM of mono- or oligosaccharides)
O=C[C@H](O)[C@@H](O)[C@H](O)CO [D-Xylose] | – | – | — (No inhibition at 100 mM of mono- or oligosaccharides)
O=C(CO)[C@@H](O)[C@H](O)[C@H](O)CO [Fructose] | – | – | — (No inhibition at 100 mM of mono- or oligosaccharides)
OC[C@H]1O[C@H](OC[C@H]2O[C@H](O[C@]3(CO)O[C@H](CO)[C@@H](O)[C@@H]3O)[C@H](O)[C@@H](O)[C@@H]2O)[C@H](O)[C@@H](O)[C@H]1O [Raffinose] | – | – | — (No inhibition at 100 mM of mono- or oligosaccharides)
B1 | inhibition occurred | 1000 µg/mL | –
B2 | inhibition occurred | 500 µg/mL | –
